# Activity calls are given as the source filed them. Rule as the data show it, for most assays here: actives have a measured EC50 and inactives only a lower limit.
# Legend:
# [1] = biological target: Luciferin 4-monooxygenase (Photinus pyralis, UniProt P08659); assay: inhibition of purified Photinus pyralis luciferase – biochemical, luminescence, dose response (AID 1891)
# [2] = Luminescence Cell-Based Dose Confirmation HTS to Identify Inhibitors of Platelet Dense Granule Release. [Related pubchem assays: 1663 (Primary HTS), 1678 (Summary of Project)]; type: functional
# [3] = biological target: T1, Calpain-2 catalytic subunit (Sus scrofa, UniProt P43367); assay: m-calpain protease blockers, concentration series – biochemical, fluorogenic peptide substrate, dose response (AID 1420); type: functional
# T1 sequence (P43367 whole entry): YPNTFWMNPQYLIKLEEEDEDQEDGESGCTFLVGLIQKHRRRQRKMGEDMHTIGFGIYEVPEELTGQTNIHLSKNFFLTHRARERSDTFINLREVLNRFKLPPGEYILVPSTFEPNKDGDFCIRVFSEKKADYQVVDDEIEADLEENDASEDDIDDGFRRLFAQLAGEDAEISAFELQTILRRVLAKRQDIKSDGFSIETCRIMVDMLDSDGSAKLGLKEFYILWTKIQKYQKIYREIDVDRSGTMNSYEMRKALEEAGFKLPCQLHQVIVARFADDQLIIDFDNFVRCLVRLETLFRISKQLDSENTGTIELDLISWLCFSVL
# BJ [4] = assay: BJ-TERT fibroblast viability loss – cell-based, RAS-independent, luminescence, dose response (AID 1933); type: functional; details: Homo sapiens
# BJ [5] = assay: cells; type: functional, cell-based; details: Homo sapiens
# BJ [6] = assay: BJ-TERT-LT-ST fibroblast viability loss – cell-based, RAS-independent, luminescence, dose response (AID 1935); type: functional; details: Homo sapiens;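 also: BJ fibroblasts immortalized with TERT plus LT and ST oncogenes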
# [7] = DRD fibroblast viability loss – cell-based, non-viral oncogenic, luminescence, dose response (AID 1934); type: functional; details: Homo sapiens
# H9c2 = assay: cells; type: functional, cell-based; details: Rattus norvegicus, H9c2, Myocardium;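 also: confirmatory concentration-response retest of ultra-high-throughput screening hits for modulation of myocardial damage; cell death induced by hydrogen peroxide oxidative stress; compound pretreatment for 60 min then peroxide exposure for 2 h; potency is for protecting the cells against peroxide damage rather than for killing them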
# [8] = biological target: T2, Replicative DNA helicase DnaB (Mycobacterium tuberculosis, UniProt P9WMR3); assay: DnaB intein splicing inhibitors, dose response, biochemical, cell-free fluorescence (AID 449749); type: functional
# T2 sequence (P9WMR3 whole entry): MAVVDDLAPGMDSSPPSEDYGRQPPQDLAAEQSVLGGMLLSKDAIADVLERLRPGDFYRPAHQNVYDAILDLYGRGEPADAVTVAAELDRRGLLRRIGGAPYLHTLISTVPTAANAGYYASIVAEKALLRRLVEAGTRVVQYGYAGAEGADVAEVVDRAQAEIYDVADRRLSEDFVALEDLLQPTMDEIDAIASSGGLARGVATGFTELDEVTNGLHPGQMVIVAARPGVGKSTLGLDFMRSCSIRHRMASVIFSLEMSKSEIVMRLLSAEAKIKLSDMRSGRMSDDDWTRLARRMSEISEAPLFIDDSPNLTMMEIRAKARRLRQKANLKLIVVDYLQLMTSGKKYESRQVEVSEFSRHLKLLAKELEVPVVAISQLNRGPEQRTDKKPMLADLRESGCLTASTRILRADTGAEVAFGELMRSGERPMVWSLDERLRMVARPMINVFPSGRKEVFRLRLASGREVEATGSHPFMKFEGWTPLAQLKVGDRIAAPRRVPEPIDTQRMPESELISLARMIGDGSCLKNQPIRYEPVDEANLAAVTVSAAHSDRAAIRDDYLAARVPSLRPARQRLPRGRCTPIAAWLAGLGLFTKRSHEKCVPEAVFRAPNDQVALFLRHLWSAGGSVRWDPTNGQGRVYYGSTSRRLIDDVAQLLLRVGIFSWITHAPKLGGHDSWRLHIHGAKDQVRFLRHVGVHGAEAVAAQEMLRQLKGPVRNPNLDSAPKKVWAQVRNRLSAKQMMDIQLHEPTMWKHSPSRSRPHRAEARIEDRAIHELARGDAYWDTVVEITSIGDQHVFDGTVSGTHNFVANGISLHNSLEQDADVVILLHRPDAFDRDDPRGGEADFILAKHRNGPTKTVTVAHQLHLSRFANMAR
# Protein RecA = biological target: T3, Protein RecA (Mycobacterium tuberculosis, UniProt P9WHJ3); assay: Fluorescence Cell-Free Homogeneous Dose Retest to Identify Inhibitors of RecA-Intein Splicing Activity. [Related pubchem assays (depositor defined):AID2097, AID2223, AID489010, AID492950]; type: functional
# T3 sequence (P9WHJ3 whole entry): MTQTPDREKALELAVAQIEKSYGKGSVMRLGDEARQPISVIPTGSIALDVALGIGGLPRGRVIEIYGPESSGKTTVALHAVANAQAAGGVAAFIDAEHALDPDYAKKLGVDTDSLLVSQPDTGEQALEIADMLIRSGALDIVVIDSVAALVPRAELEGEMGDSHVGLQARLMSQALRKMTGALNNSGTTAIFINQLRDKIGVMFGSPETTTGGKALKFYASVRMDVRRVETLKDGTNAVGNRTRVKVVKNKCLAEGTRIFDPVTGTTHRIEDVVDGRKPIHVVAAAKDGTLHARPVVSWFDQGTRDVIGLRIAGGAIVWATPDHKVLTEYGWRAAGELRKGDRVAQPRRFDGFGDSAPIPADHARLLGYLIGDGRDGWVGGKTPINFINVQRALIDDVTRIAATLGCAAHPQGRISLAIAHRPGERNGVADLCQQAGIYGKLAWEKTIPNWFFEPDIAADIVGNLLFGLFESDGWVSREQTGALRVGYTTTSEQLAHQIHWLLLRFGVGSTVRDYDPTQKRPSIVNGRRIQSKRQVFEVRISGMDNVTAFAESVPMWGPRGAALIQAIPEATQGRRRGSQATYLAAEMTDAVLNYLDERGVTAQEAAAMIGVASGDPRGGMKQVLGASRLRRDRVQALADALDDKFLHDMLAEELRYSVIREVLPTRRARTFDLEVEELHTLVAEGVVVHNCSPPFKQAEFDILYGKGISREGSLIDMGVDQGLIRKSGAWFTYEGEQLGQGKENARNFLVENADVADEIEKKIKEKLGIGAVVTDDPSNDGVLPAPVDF
# [9] = biological target: T4, Rac GTPase-activating protein 1 (Homo sapiens, UniProt Q9H0H5); assay: blockers of MgcRacGAP-driven Rac1 GTP hydrolysis – biochemical, ADP Hunter fluorescence, primary and confirmatory, confirmation (AID 624330); type: functional
# T4 sequence (Q9H0H5 whole entry): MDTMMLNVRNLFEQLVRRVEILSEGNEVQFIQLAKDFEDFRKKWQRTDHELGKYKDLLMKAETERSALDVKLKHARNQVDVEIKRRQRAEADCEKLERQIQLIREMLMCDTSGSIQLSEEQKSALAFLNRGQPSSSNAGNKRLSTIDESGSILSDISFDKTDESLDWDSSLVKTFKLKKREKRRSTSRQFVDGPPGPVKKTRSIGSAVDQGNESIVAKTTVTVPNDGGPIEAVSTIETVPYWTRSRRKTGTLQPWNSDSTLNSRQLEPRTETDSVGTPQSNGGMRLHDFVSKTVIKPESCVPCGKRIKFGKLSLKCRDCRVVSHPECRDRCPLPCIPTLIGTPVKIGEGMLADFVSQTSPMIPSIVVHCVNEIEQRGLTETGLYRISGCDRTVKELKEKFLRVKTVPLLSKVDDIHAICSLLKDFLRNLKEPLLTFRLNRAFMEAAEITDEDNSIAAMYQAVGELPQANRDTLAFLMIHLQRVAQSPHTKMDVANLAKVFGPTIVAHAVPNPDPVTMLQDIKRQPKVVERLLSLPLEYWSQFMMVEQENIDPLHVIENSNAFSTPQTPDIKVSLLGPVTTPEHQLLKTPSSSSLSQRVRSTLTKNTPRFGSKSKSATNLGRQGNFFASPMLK
# [10] = luciferase reporter signal suppression in cells – H4 neuroglioma cells, luminescence, dose response (AID 1990); type: functional, cell-based
# [11] = Luminescence Cell-Based Dose Response HTS to Identify Inhibitors of 5'UTR Stem-Loop Driven Prion Protein mRNA Translation in H4 Neuroglioblastoma Cells. [Related pubchem assays: 1827 (Project Summary), 1813 (Primary HTS)]; type: functional
# [12] = alpha-synuclein stem-loop luciferase translation blockers – H4 neuroglioma cells, luminescence, confirmation (AID 1988); type: functional, cell-based
# INS1 = assay: INS-1E survival protection against cytokine death – cell-based, luminescence, retest, dose response (AID 449756); type: functional; details: Rattus norvegicus;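 also: cell death triggered by IL-1 beta plus TNF-alpha plus IFN-gamma mixture; protective hits raise ATP signal compared with cytokine alone wells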
# [13] = Trypanosoma cruzi growth suppression in host cells – NIH3T3 host cells, beta-gal luminescence, confirmation (AID 2044); type: functional, cell-based;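 also: intracellular parasites grown in NIH/3T3 mouse fibroblasts as host cells; luminescent beta-galactosidase reporter signal from transgenic T. cruzi replicating inside host cells; inhibitors lower the luminescence signal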
# [14] = NIH3T3 cell viability loss – ATP luminescence, mouse fibroblasts, counter-screen, dose response (AID 2010); type: functional, cell-based;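 also: cells exposed to compound for about 90 hours before reading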
# Sequence of Luciferin 4-monooxygenase (P08659 whole entry): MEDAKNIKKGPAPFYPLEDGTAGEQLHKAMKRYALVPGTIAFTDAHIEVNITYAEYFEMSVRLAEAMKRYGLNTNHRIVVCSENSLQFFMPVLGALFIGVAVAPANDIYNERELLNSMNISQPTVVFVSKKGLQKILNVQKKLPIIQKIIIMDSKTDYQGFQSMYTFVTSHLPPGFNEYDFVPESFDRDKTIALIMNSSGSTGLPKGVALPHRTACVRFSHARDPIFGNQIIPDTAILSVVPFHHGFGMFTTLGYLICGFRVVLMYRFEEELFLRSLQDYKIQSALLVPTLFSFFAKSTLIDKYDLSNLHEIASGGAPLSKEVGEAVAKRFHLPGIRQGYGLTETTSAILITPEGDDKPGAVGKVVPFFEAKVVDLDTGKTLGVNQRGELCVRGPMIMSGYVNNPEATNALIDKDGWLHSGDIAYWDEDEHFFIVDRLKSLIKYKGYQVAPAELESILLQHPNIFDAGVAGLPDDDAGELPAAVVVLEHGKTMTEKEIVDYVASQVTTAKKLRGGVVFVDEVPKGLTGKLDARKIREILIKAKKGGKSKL
smiles,measurement,setting,value
COC(=O)C(Cc1ccc(O)cc1)NC(=O)C12CC3CC(CC(C3)C1)C2 (stereo not given),EC50,[1],> 112 µM (not active)
same,EC50,[2],17.2 µM (active)
CC(=O)Nc1ccc(NC(=O)Cn2nc([N+](=O)[O-])c(Br)c2C)cc1,IC50,[3],11.6 µM (not active)
CCOc1ccc(N(CC(=O)Nc2cccc(OC)c2)S(=O)(=O)c2c(C)noc2C)cc1,IC50,[3],5.86 µM (not active)
N#Cc1cc2c(nc1SCC(=O)Nc1sc3c(c1C#N)CCC3)CCC2,EC50,BJ [4],98.7 µM (active)
same,EC50,BJ [5],> 150 µM (not active)
same,EC50,BJ [6],> 75 µM (not active)
same,EC50,[7],32.8 µM (active)
N#CCCSc1ccccc1NC(=O)c1cc(=O)c2ccccc2o1,IC50,H9c2,19.3 µM (active)
O=c1c2c(-c3cccs3)csc2ncn1-n1cccc1,IC50,[3],> 50 µM (not active)
CCCCc1c(O)nc(SCC(=O)N2CCOCC2)nc1O,EC50,[1],> 112 µM (not active)
same,EC50,[2],> 112 µM (not active)
Cc1nc2sc3c(c2c(=O)n1NC(=O)CCl)CCCC3,EC50,BJ [4],30.8 µM (active)
same,EC50,BJ [5],> 150 µM (not active)
same,EC50,BJ [6],> 150 µM (inconclusive)
same,EC50,[7],> 150 µM (not active)
CCOc1ccc(C(C(=O)NC2CCCC2)N(C(=O)c2snc(C(N)=O)c2N)c2cccc(O)c2)cc1 (stereo not given),IC50,H9c2,> 79 µM (inactive)
O=C(CCc1nc(O)c2ccccc2n1)Nc1ccc(Cl)c(Cl)c1,IC50,H9c2,15.4 µM (active)
CCCCS/C(=C(/C#N)C(N)=O)c1cc2c([nH]1)CCCC2,AC50,[8],> 380 µM (inactive)
same,EC50,Protein RecA,15.6 µM (active)
COc1ccc(OCC(=O)NCc2nnc(O)c3ccccc23)cc1,IC50,H9c2,> 79 µM (inactive)
Cc1ccc(NC(=O)CNC(=O)c2ccccc2F)cc1Cl,IC50,[3],37.6 µM (not active)
Oc1ccc(Br)cc1/C=N/c1ccc2c3c(cccc13)CC2,IC50,H9c2,> 79 µM (inactive)
same,IC50,[9],33.5 µM (active)
O=C(NCc1ccccc1)C1=C[C@@H](c2csc3ccccc23)C[C@@H](OCCCCO)O1,EC50,[10],11.2 µM (active)
same,EC50,BJ [4],22.8 µM (inconclusive)
same,EC50,[11],10.5 µM (active)
same,EC50,[12],9.75 µM (active)
same,EC50,BJ [5],35.8 µM (active)
same,EC50,BJ [6],> 150 µM (not active)
same,EC50,[7],28.4 µM (active)
same,AC50,INS1,1.43 µM (active)
c1csc(-c2nn3c(Cn4nnc5ccccc54)nnc3s2)c1,EC50,[1],> 112 µM (not active)
same,EC50,[2],> 112 µM (not active)
CCn1nc(C(=O)OCC(=O)c2c[nH]c3ccccc23)c2ccccc2c1=O,IC50,[3],3.99 µM (not active)
same,IC50,H9c2,> 79 µM (inactive)
Cc1cc(NC(=O)COc2nnc(-c3ccccc3)c3ccccc23)no1,IC50,H9c2,32.3 µM (inactive)
COc1cccc(OCCNC(=O)c2cccc(OC)c2)c1,EC50,[1],> 112 µM (not active)
same,EC50,[2],> 112 µM (not active)
O=[N+]([O-])c1c(O)nc(O)nc1/C=C/c1cccnc1,AC50,[8],> 380 µM (inactive)
same,EC50,Protein RecA,> 380 µM (inactive)
Cc1ccc(CN(C)C(=O)COC(=O)CSc2ccc(C(N)=O)cc2[N+](=O)[O-])cc1,IC50,H9c2,> 79 µM (inactive)
O=CNc1cc(-c2ccc(C(=O)NC3CC3)cc2)cn2c(-c3ccccc3)cnc12,IC50,H9c2,> 79 µM (inactive)
O=C(NNC(=O)c1cc(OCC(F)(F)F)ccc1OCC(F)(F)F)c1ccc(Cl)c(Cl)c1,IC50,[3],6.1 µM (not active)
Cc1nn(C)c(Oc2ccccc2)c1CCNC(=O)CCl,EC50,BJ [4],28.9 µM (active)
same,EC50,BJ [5],> 150 µM (not active)
same,EC50,BJ [6],> 150 µM (not active)
same,EC50,[7],> 150 µM (not active)
Cc1ccc(Nc2c([N+](=O)[O-])nn(-c3ccc4c(c3)OCCO4)[n+]2[O-])c(Cl)c1,EC50,[13],0.199 µM (active)
same,IC50,[3],23.1 µM (not active)
same,EC50,[14],> 60 µM (not active)
COc1cccc(NC(=O)N(C2CCCCC2)C(C)c2cccs2)c1 (stereo not given),IC50,[3],8.59 µM (not active)
COC(=O)CC1=NN(c2ccc(OC)cc2)C(=O)C1,AC50,[8],54.9 µM (active)
same,EC50,Protein RecA,13.1 µM (active)
CCOC(=O)Cc1n[nH]c2c1C(c1cc(OC)ccc1OC)C(C#N)=C(N)O2 (stereo not given),AC50,[8],73.9 µM (active)
same,EC50,Protein RecA,13.3 µM (active)
COc1ccc(N2CCN(C(=O)Cn3cnc4c(cnn4-c4ccccc4)c3=O)CC2)cc1,IC50,[3],4.18 µM (not active)
CCOc1cc(NC(=O)C2CC2)c(OCC)cc1NC(=O)c1ccccn1,IC50,H9c2,12.6 µM (active)
Cc1ccc(NC(=O)c2cc(S(=O)(=O)N3CCOCC3)cn2C)c(C)c1,EC50,[1],> 112 µM (not active)
same,EC50,[2],> 112 µM (not active)
Cn1c2ccc(F)cc2c2nnc(NN)nc21,IC50,H9c2,> 79 µM (inactive)
CCN(C(=O)COC(=O)c1cc(-c2cccs2)nc2ccccc12)C1CCS(=O)(=O)C1 (stereo not given),EC50,[1],> 112 µM (not active)
same,EC50,[2],> 112 µM (not active)
CCn1c(SCC(=O)N2CCCC(C)C2)nnc1-c1ccco1 (stereo not given),EC50,[1],> 112 µM (not active)
same,EC50,[2],> 112 µM (not active)
